In patent publication US20250040935A1, “FABRICATION OF RADIOPAQUE RESORBABLE HYDROGEL BEADS VIA MICROFLUIDICS FOR CATHETER EMBOLIZATION APPLICATIONS” (Saint Louis University, priority 2023, published 2025) one finds drug released, initial burst release and docetaxel released data, which are given here for two molecules.

The structures appear in SMILES notation.

Holding throughout (type): physicochemical
Data set [1] is described as follows: Apalutamide and docetaxel bulk release from hydrogels. The conditions noted are these: after 24 h; from both PEG-only and 20% BaSO4 hydrogel.
Description: To determine bulk release of drugs from hydrogels, acridine orange (AO), docetaxel, bicalutamide, and apalutamide release into a sink volume was measured. Samples from the sink volume were taken over time and then the amount of sample volume that was taken out was replaced with the same amount of sink solution. The sink solution for AO experiments was PBS and the sink solution used for docetaxel, bicalutamide, and apalutamide was 80:20 ethanol to DI water. The absorbance of each sample solution was measured to calculate the concentration of drug in the sample solution. The equation used to calculate these concentrations was from the standard curves obtained for each drug or acridine orange (AO). The concentrations of drugs or AO in solution allowed for quantifying each drug release profile as well as their diffusion coefficient from a hydrogel. Apalutamide (0.5 mg/mL) stock solution was prepared in 80:20 DMSO or ethanol and DI water. A standard curve was constructed for apalutamide by creating samples of known concentrations and measuring the absorbance at 260 nm of each sample. Hydrogels were then fabricated with conditions: PEG+Doc+Apa and PEG+BaSO4+Doc+Apa (Table 6). […] Absorbances of 230 nm and 260 nm were measured for each sample to be able to obtain concentrations of docetaxel and apalutamide released into solution.
The nature of data set [2]: Apalutamide and docetaxel microsphere release study. Particulars: within the first 24 hrs; microspheres, PEG and 20% w/v 1 μm BaSO4 groups. As for the experimental part:
Barium microspheres (20% w/v) were fabricated using the T-junction and then frozen overnight at −80 degrees Celsius. The next morning the microspheres were lyophilized for 1 day. Once the microspheres were fully lyophilized, they were then swollen in 10 μL 0.5 mg/mL docetaxel and apalutamide for 1 day. The next day, the excess drug was removed from the centrifuge tube and 500 μL 80:20 ethanol to DI water was added. A release study was then preformed as described above and the release profile for 20% barium microspheres was obtained.

Data set [3] in a line: Docetaxel release from PEG gels/microspheres (Example 1). Particulars: in the first 60 minutes, loaded at 0.1 mg/ml, released in 20:80 anhydrous ethanol:di-water. As for the experimental part: Docetaxel release and in vivo efficacy. Docetaxel was released from the PEG microspheres over several hours, with 60% released in the first 60 minutes (FIG. 2A). For bulk release experiments, docetaxel was dissolved in anhydrous ethanol, loaded in PEG gels at 0.1 mg/ml and released in a 20:80 anhydrous ethanol:di-water. Release was followed by absorbance measurements at 220 nm. […] PC3 cells (2×10^6 cells) were injected and grown to ˜120 mm^3 tumor volume prior to treatment.

Take `CC(=O)O[C@@]12CO[C@@H]1C[C@H](O)[C@@]1(C)C(=O)[C@H](O)C3=C(C)[C@@H](OC(=O)[C@H](O)[C@@H](NC(=O)OC(C)(C)C)c4ccccc4)C[C@@](O)([C@@H](OC(=O)c4ccccc4)[C@H]21)C3(C)C` [Docetaxel]: the drug released in data set [1] is listed as approximately 90%. In data set [2], this molecule returned an initial burst release of approximately 90%. Moreover, in data set [3], the docetaxel released turned out to be 60%.
Turning to `CNC(=O)c1ccc(N2C(=S)N(c3cnc(C#N)c(C(F)(F)F)c3)C(=O)C23CCC3)cc1F` [Apalutamide], the initial burst release in data set [2] is recorded as approximately 80%.
